ChEMBL document CHEMBL5291721, “A preclinical secondary pharmacology resource illuminates target-adverse drug reaction associations of marketed drugs” (Nat Commun, 2023)

Experiments:
[1] = biological target: T1, Alpha-2A adrenergic receptor (Homo sapiens, UniProt P08913); type: functional, cell-based
T1 sequence (P08913 whole entry): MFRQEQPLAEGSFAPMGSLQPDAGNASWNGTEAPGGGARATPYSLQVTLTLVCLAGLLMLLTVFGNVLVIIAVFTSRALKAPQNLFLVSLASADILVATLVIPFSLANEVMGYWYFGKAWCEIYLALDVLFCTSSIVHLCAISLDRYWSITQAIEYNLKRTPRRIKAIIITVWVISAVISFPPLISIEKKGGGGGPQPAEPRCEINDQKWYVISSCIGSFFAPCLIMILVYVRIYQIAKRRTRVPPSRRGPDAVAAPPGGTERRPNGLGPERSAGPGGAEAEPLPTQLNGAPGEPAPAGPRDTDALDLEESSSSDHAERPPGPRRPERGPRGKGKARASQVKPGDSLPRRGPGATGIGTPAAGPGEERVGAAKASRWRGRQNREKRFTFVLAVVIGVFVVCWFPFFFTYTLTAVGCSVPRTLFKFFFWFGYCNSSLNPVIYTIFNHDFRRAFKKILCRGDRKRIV

[2] = biological target: T1, Alpha-2A adrenergic receptor
[3] = biological target: Beta-1 adrenergic receptor (Homo sapiens, UniProt P08588); type: functional
[4] = biological target: Neuronal acetylcholine receptor subunit alpha-4 (Homo sapiens, UniProt P43681)
Cannabinoid receptor 1 [5] = biological target: T2, Cannabinoid receptor 1 (Homo sapiens, UniProt P21554); type: functional, cell-based
Cannabinoid receptor 1 [6] = biological target: T2, Cannabinoid receptor 1; type: functional, cell-based; remark: listed apart in the source
[7] = biological target: Gamma-aminobutyric acid receptor subunit alpha-1 (Rattus norvegicus, UniProt P62813); type: functional
[8] = biological target: T3, 5-hydroxytryptamine receptor 1A (Homo sapiens, UniProt P08908); type: functional, cell-based
T3 sequence (P08908 whole entry): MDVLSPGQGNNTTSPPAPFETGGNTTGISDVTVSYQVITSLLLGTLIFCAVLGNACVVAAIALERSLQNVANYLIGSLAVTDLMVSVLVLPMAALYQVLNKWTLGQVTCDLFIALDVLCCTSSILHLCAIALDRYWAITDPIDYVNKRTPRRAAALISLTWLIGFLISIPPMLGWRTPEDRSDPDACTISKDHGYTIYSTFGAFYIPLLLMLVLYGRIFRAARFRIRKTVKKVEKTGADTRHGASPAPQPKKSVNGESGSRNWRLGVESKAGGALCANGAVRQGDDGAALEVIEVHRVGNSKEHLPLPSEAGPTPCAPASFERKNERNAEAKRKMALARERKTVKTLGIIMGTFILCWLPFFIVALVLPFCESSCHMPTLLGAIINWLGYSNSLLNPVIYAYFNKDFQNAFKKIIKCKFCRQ

[9] = biological target: T4, 5-hydroxytryptamine receptor 3A (Homo sapiens, UniProt P46098); type: functional
T4 sequence (P46098 whole entry): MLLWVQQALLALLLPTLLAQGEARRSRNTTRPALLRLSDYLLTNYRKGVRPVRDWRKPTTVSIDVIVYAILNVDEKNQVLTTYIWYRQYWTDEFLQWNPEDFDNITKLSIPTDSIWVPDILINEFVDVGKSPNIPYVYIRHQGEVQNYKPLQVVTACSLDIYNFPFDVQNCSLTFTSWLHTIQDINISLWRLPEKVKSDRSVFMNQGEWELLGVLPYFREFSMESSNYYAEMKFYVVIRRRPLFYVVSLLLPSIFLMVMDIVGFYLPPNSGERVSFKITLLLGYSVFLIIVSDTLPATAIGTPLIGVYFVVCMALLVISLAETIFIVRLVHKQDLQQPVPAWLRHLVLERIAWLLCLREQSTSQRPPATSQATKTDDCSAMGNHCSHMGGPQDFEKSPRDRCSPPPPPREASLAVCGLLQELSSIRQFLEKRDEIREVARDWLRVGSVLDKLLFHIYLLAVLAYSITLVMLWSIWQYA

[10] = biological target: cGMP-inhibited 3',5'-cyclic phosphodiesterase 3A (Homo sapiens, UniProt Q14432); type: functional
[11] = biological target: 3',5'-cyclic-AMP phosphodiesterase 4A (Homo sapiens, UniProt P27815); type: functional
Progesterone receptor = biological target: T5, Progesterone receptor (Homo sapiens, UniProt P06401)
T5 sequence (P06401 whole entry): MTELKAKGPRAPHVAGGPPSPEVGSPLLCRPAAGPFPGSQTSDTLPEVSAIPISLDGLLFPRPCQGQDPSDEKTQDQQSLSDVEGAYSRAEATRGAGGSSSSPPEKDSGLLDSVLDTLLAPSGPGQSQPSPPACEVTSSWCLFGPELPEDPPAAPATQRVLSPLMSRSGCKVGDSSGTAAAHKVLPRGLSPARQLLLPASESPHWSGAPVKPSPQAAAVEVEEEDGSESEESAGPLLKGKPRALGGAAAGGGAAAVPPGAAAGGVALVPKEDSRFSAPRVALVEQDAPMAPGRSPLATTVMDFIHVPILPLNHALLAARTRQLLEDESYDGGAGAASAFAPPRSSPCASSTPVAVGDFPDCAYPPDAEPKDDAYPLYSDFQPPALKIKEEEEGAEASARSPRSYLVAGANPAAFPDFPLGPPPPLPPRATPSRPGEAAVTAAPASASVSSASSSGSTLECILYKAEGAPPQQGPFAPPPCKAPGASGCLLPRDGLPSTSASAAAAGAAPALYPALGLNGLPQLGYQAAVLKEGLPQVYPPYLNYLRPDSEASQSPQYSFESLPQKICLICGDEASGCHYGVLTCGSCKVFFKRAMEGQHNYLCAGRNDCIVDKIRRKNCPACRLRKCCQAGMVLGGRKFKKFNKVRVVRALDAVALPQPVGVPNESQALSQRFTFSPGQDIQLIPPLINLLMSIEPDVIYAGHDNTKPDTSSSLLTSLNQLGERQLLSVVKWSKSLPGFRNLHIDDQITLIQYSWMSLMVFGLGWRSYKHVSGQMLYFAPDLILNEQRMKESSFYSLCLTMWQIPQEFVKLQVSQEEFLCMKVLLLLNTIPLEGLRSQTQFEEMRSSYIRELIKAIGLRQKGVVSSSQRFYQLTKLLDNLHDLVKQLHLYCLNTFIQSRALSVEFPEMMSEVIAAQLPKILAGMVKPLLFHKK

[12] = biological target: Prostaglandin G/H synthase 1 (Homo sapiens, UniProt P23219); type: functional
Note: assay procedure not described here.

Chain of Gamma-aminobutyric acid receptor subunit alpha-1 (P62813 whole entry): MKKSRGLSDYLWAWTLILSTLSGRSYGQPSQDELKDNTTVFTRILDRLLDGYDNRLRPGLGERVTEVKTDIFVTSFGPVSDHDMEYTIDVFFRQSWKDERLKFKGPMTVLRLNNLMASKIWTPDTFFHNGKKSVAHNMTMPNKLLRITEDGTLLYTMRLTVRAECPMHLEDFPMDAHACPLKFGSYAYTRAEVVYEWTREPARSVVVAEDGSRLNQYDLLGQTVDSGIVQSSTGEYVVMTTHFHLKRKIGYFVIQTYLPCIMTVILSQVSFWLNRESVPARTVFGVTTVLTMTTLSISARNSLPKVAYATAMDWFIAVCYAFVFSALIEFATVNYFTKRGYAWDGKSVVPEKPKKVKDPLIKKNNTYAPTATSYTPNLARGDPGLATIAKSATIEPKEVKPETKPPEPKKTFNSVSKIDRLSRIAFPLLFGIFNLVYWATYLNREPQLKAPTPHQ
T2 sequence (P21554 whole entry): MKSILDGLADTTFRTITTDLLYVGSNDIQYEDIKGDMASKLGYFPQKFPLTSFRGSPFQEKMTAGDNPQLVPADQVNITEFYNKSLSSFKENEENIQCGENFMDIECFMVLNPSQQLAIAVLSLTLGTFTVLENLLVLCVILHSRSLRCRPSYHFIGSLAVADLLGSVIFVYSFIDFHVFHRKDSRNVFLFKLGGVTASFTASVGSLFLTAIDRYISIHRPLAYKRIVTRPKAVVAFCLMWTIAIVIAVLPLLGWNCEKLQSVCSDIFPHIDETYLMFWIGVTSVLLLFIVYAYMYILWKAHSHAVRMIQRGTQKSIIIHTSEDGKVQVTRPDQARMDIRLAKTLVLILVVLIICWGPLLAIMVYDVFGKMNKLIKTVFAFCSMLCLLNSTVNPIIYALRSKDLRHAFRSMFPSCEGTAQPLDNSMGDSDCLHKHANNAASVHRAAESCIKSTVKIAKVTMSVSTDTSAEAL
Chain of Prostaglandin G/H synthase 1 (P23219 whole entry): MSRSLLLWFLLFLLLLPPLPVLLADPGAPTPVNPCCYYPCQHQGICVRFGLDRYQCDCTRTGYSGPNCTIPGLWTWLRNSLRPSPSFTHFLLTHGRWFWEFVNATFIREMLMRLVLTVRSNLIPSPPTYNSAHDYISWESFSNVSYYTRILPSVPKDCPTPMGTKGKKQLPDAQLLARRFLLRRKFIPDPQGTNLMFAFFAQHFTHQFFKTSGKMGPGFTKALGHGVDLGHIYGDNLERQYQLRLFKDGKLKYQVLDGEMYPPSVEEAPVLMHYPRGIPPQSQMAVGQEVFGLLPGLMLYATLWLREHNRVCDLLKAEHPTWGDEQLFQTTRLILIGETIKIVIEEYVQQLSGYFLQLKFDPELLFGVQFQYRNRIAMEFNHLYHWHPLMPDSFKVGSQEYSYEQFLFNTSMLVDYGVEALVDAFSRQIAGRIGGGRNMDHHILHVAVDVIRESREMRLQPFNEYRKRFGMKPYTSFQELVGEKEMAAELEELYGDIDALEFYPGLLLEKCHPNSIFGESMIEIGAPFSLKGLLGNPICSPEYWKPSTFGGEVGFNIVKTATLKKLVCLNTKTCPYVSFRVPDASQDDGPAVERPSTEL
Chain of cGMP-inhibited 3',5'-cyclic phosphodiesterase 3A (Q14432 whole entry): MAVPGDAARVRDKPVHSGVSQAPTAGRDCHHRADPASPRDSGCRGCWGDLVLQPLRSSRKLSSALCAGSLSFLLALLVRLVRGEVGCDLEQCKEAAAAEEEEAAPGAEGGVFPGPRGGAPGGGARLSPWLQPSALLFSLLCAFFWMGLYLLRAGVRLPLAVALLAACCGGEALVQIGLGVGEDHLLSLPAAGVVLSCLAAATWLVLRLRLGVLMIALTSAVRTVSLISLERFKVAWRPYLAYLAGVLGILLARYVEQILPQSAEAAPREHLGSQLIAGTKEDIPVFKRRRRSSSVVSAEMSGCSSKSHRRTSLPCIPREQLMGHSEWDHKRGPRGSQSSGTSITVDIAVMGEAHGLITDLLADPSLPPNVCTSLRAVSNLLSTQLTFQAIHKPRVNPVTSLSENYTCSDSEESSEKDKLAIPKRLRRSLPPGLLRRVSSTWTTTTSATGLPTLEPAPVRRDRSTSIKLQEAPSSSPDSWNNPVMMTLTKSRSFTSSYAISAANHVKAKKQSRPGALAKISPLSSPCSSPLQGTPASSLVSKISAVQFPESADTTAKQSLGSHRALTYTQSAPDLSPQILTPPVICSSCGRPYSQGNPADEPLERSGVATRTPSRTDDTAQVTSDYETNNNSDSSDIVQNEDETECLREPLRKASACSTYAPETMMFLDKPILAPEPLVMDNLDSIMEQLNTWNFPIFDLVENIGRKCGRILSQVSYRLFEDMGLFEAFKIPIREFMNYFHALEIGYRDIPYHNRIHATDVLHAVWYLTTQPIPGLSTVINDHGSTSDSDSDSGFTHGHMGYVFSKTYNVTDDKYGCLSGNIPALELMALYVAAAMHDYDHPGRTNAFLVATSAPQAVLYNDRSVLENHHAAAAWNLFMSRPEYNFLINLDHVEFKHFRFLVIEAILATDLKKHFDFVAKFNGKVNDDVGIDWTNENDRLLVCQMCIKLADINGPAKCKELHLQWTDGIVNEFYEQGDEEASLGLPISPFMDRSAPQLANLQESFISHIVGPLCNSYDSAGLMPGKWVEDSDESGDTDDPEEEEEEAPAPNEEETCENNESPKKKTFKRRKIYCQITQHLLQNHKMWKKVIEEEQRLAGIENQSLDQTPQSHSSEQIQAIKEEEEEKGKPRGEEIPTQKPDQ
Chain of Neuronal acetylcholine receptor subunit alpha-4 (P43681 whole entry): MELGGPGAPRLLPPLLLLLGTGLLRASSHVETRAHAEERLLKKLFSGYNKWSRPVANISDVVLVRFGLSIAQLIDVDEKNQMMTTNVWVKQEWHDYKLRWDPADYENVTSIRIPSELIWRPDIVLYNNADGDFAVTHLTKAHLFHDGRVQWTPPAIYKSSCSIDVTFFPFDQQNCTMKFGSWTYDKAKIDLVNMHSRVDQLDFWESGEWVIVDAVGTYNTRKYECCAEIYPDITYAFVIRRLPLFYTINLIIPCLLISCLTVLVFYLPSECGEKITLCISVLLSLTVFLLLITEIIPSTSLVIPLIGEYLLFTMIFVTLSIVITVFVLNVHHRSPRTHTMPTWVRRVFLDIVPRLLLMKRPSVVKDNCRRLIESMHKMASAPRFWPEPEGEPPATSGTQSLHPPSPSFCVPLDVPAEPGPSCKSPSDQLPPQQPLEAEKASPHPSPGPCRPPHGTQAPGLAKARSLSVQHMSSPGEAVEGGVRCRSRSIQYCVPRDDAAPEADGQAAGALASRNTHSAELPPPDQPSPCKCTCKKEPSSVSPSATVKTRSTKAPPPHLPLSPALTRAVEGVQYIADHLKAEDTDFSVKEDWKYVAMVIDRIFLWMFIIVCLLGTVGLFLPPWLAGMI
Chain of Beta-1 adrenergic receptor (P08588 whole entry): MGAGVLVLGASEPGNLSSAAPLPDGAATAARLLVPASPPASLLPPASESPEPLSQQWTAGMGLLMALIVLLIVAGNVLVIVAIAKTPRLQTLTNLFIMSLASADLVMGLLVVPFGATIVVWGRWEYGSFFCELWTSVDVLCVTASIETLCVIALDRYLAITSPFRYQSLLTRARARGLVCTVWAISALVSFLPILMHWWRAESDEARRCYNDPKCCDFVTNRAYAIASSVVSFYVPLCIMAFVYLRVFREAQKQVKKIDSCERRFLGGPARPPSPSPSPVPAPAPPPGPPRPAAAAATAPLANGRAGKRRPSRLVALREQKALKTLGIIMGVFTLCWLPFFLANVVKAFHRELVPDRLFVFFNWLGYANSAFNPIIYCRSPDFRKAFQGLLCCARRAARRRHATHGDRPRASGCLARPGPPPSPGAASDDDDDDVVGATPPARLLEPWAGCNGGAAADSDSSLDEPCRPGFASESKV
Chain of 3',5'-cyclic-AMP phosphodiesterase 4A (P27815 whole entry): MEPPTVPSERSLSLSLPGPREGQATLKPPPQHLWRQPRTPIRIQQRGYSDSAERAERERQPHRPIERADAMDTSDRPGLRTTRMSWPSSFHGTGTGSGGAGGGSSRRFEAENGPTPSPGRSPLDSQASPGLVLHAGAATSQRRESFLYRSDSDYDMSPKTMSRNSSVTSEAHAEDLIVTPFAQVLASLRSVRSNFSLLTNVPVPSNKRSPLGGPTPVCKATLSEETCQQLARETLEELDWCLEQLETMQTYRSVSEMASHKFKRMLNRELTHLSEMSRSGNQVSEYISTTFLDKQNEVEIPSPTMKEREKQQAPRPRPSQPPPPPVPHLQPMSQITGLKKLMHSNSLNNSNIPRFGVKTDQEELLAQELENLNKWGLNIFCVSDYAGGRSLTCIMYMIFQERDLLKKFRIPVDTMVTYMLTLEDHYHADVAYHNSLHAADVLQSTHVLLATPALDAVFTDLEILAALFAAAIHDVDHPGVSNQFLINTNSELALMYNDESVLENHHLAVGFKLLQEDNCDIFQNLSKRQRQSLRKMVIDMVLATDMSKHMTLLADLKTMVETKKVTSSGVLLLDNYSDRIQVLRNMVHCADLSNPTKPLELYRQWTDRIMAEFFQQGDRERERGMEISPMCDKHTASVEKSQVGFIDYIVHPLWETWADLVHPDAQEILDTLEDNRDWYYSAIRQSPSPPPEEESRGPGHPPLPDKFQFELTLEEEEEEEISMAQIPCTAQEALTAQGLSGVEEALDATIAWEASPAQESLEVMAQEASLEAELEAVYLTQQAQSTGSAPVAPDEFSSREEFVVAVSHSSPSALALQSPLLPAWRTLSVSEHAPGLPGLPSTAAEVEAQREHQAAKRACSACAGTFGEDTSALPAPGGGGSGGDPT

Row | SMILES | AC50 [1] | AC50 [2] | AC50 [3] | AC50 [4] | AC50 (Cannabinoid receptor 1 [5]) | AC50 (Cannabinoid receptor 1 [6]) | AC50 [7] | AC50 [8] | AC50 [9] | AC50 [10] | AC50 [11] | AC50 (Progesterone receptor) | AC50 [12]
1 | COc1cc2nccc(Oc3ccc(NC(=O)C4(C(=O)Nc5ccc(F)cc5)CC4)cc3)c2cc1OC [CABOZANTINIB] | 19 µM | > 30 µM | > 30 µM | > 30 µM | > 30 µM | > 30 µM | > 30 µM | > 30 µM | > 30 µM | 27.9 µM | > 30 µM | > 10 µM | > 30 µM
2 | C#C[C@]1(O)CC[C@H]2[C@@H]3CCC4=CC(=O)CC[C@@H]4[C@H]3C(=C)C[C@@]21CC [ETONOGESTREL] | > 30 µM | > 30 µM |  |  | > 30 µM | > 30 µM | 27 µM | > 30 µM | > 30 µM | > 30 µM | > 30 µM | 0.003 µM | > 30 µM
3 | CC(C)Cc1ccc(C(C)C(=O)O)cc1 (centres undefined) [IBUPROFEN] | > 10 µM | > 30 µM | > 10 µM | > 10 µM | > 30 µM | > 30 µM | > 10 µM | > 10 µM | > 30 µM | > 30 µM | > 30 µM | > 30 µM | 
4 | CN(CC1(C)CCCO1)S(=O)(=O)c1ccc(Cl)c(S(N)(=O)=O)c1 (centres undefined) [MEFRUSIDE] | > 30 µM | > 30 µM |  |  | > 30 µM | > 30 µM | > 30 µM | > 30 µM | > 30 µM | > 30 µM | > 30 µM | > 30 µM | > 30 µM
5 | CN1C(C(=O)Nc2ccccn2)=C(O)c2ccccc2S1(=O)=O [PIROXICAM] | > 10 µM | > 30 µM | > 10 µM | > 10 µM |  |  | > 10 µM | > 10 µM | > 30 µM | > 30 µM | > 30 µM | > 30 µM | 
6 | OC[C@H]1O[C@@](CO)(O[C@H]2O[C@H](CO)[C@@H](O)[C@H](O)[C@H]2O)[C@@H](O)[C@@H]1O [SUCROSE] | > 30 µM | > 30 µM |  | > 30 µM | > 30 µM | > 30 µM | > 30 µM | > 30 µM | > 30 µM | > 30 µM | > 30 µM | > 30 µM | > 30 µM
7 | COc1cc2nc(N3CCN(C(=O)C4CCCO4)CC3)nc(N)c2cc1OC (centres undefined) [TERAZOSIN] | > 30 µM | 11.8 µM | > 10 µM | > 10 µM | > 30 µM | > 30 µM | > 10 µM | > 10 µM | > 10 µM | > 30 µM | > 30 µM |  | > 30 µM
8 | Cc1onc(-c2ccccc2)c1-c1ccc(S(N)(=O)=O)cc1 [VALDECOXIB] | > 10 µM | > 30 µM | 8.32 µM | > 30 µM | > 30 µM | > 30 µM | > 10 µM | > 10 µM | > 30 µM | > 30 µM | 18.7 µM | > 30 µM | 
9 | CCCC(CCC)C(=O)O [VALPROIC ACID] | > 10 µM | > 30 µM | > 10 µM | > 10 µM |  |  | > 10 µM | > 10 µM | > 30 µM | > 30 µM | > 30 µM | > 30 µM | > 30 µM
